Source: PubChem BioAssay (NCI)
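Where inhibition never reached the appropriate level, the endpoint shown equals the highest concentration tested. Otherwise, values were interpolated linearly from a five-concentration, 48-hour dose response in 96-well plates. TGI marks complete inhibition of growth.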

Columns and labels:
Experiment in all cases: NCI-60 cell line screen, 48 h
786-0 renal = tested on: 786-0 renal
A498 renal = tested on: A498 renal
A549 NSCLC = tested on: A549 NSCLC
ACHN renal = tested on: ACHN renal
BT-549 breast = tested on: BT-549 breast
CAKI-1 renal = tested on: CAKI-1 renal
CCRF-CEM leukemia = tested on: CCRF-CEM leukemia
COLO 205 colon = tested on: COLO 205 colon
DU-145 prostate = tested on: DU-145 prostate
EKVX NSCLC = tested on: EKVX NSCLC
HCC-2998 colon = tested on: HCC-2998 colon
HCT-116 colon = tested on: HCT-116 colon
HCT-15 colon = tested on: HCT-15 colon
HL-60(TB) leukemia = tested on: HL-60(TB) leukemia
HOP-62 NSCLC = tested on: HOP-62 NSCLC
HS 578T breast = tested on: HS 578T breast
HT29 colon = tested on: HT29 colon
IGROV1 ovarian = tested on: IGROV1 ovarian
K-562 leukemia = tested on: K-562 leukemia
KM12 colon = tested on: KM12 colon
LOX IMVI melanoma = tested on: LOX IMVI melanoma
M14 melanoma = tested on: M14 melanoma
MCF7 breast = tested on: MCF7 breast
MDA-MB-435 = tested on: MDA-MB-435
MDA-N = tested on: MDA-N
MOLT-4 leukemia = tested on: MOLT-4 leukemia
NCI-H226 lung = tested on: NCI-H226 lung
NCI-H23 lung = tested on: NCI-H23 lung
NCI-H460 lung = tested on: NCI-H460 lung
NCI-H522 lung = tested on: NCI-H522 lung
NCI/ADR-RES ovarian = tested on: NCI/ADR-RES ovarian
OVCAR-3 ovarian = tested on: OVCAR-3 ovarian
OVCAR-4 ovarian = tested on: OVCAR-4 ovarian
OVCAR-5 ovarian = tested on: OVCAR-5 ovarian
PC-3 prostate = tested on: PC-3 prostate
RPMI-8226 leukemia = tested on: RPMI-8226 leukemia
RXF 393 renal = tested on: RXF 393 renal
SF-268 CNS = tested on: SF-268 CNS
SF-295 CNS = tested on: SF-295 CNS
SF-539 CNS = tested on: SF-539 CNS
SK-MEL-2 melanoma = tested on: SK-MEL-2 melanoma
SK-MEL-28 melanoma = tested on: SK-MEL-28 melanoma
SK-MEL-5 melanoma = tested on: SK-MEL-5 melanoma
SK-OV-3 ovarian = tested on: SK-OV-3 ovarian
SN12C renal = tested on: SN12C renal
SNB-19 CNS = tested on: SNB-19 CNS
SR leukemia = tested on: SR leukemia
SW-620 colon = tested on: SW-620 colon
T-47D breast = tested on: T-47D breast
TK-10 renal = tested on: TK-10 renal
U251 CNS = tested on: U251 CNS
UACC-257 melanoma = tested on: UACC-257 melanoma
UACC-62 melanoma = tested on: UACC-62 melanoma
UO-31 renal = tested on: UO-31 renal
MALME-3M melanoma = tested on: MALME-3M melanoma
MDA-MB-231 breast = tested on: MDA-MB-231 breast
OVCAR-8 ovarian = tested on: OVCAR-8 ovarian
SNB-75 CNS = tested on: SNB-75 CNS

In the case of `COc1ccc(CNC(=O)[C@H](Cc2ccc(O)cn2)NC(C)=O)cc1`, the TGI (786-0 renal) is reported as over 100 µM, the TGI (A498 renal) is reported as over 100 µM and the TGI (A549 NSCLC) is reported as over 100 µM. It also gave a TGI (ACHN renal) of over 100 µM, a TGI (BT-549 breast) of over 100 µM and a TGI (CAKI-1 renal) of over 100 µM. It also gave a TGI (CCRF-CEM leukemia) of over 100 µM, a TGI (COLO 205 colon) of over 100 µM and a TGI (DU-145 prostate) of over 100 µM. For the same molecule, the TGI (EKVX NSCLC) was over 100 µM, the TGI (HCC-2998 colon) was over 100 µM and the TGI (HCT-116 colon) was over 100 µM. For the same molecule, the TGI (HCT-15 colon) was over 100 µM, the TGI (HL-60(TB) leukemia) was over 100 µM and the TGI (HOP-62 NSCLC) was over 100 µM. The TGI (HS 578T breast) was over 100 µM, the TGI (HT29 colon) was over 100 µM and the TGI (IGROV1 ovarian) was over 100 µM. The TGI (K-562 leukemia) was over 100 µM, the TGI (KM12 colon) was over 100 µM and the TGI (LOX IMVI melanoma) was over 100 µM. It also gave a TGI (M14 melanoma) of over 100 µM, a TGI (MCF7 breast) of over 100 µM and a TGI (MDA-MB-435) of over 100 µM. The TGI (MDA-N) was over 100 µM, the TGI (MOLT-4 leukemia) was over 100 µM and the TGI (NCI-H226 lung) was over 100 µM. The TGI (NCI-H23 lung) was over 100 µM, the TGI (NCI-H460 lung) was over 100 µM and the TGI (NCI-H522 lung) was over 100 µM. It also gave a TGI (NCI/ADR-RES ovarian) of over 100 µM, a TGI (OVCAR-3 ovarian) of over 100 µM and a TGI (OVCAR-4 ovarian) of over 100 µM. It also gave a TGI (OVCAR-5 ovarian) of over 100 µM, a TGI (PC-3 prostate) of over 100 µM and a TGI (RPMI-8226 leukemia) of over 100 µM. For the same molecule, the TGI (RXF 393 renal) was over 100 µM, the TGI (SF-268 CNS) was over 100 µM and the TGI (SF-295 CNS) was over 100 µM. For the same molecule, the TGI (SF-539 CNS) was over 100 µM, the TGI (SK-MEL-2 melanoma) was over 100 µM and the TGI (SK-MEL-28 melanoma) was over 100 µM. It also gave a TGI (SK-MEL-5 melanoma) of over 100 µM, a TGI (SK-OV-3 ovarian) of over 100 µM and a TGI (SN12C renal) of over 100 µM. For the same molecule, the TGI (SNB-19 CNS) was over 100 µM, the TGI (SR leukemia) was over 100 µM and the TGI (SW-620 colon) was over 100 µM. For the same molecule, the TGI (T-47D breast) was over 100 µM, the TGI (TK-10 renal) was over 100 µM and the TGI (U251 CNS) was over 100 µM. The TGI (UACC-257 melanoma) was over 100 µM, the TGI (UACC-62 melanoma) was over 100 µM and the TGI (UO-31 renal) was over 100 µM.
Work on `CCOC(=O)c1[nH]c2nc(SC)nc(Nc3ccccc3Cl)c2c1N` yielded a TGI (786-0 renal) of 46 µM, a TGI (A498 renal) of 55.9 µM and a TGI (A549 NSCLC) of 44.8 µM. For the same molecule, the TGI (ACHN renal) was 46.1 µM, the TGI (BT-549 breast) was 82.1 µM and the TGI (CAKI-1 renal) was over 100 µM. For the same molecule, the TGI (CCRF-CEM leukemia) was 46.8 µM, the TGI (COLO 205 colon) was over 100 µM and the TGI (DU-145 prostate) was 95.7 µM. For the same molecule, the TGI (HCC-2998 colon) was over 100 µM, the TGI (HCT-116 colon) was over 100 µM and the TGI (HCT-15 colon) was over 100 µM. It also gave a TGI (HOP-62 NSCLC) of 41.3 µM, a TGI (HS 578T breast) of 61.8 µM and a TGI (HT29 colon) of 47.1 µM. For the same molecule, the TGI (IGROV1 ovarian) was 86.2 µM, the TGI (K-562 leukemia) was 40.5 µM and the TGI (KM12 colon) was over 100 µM. It also gave a TGI (LOX IMVI melanoma) of 44.8 µM, a TGI (M14 melanoma) of over 100 µM and a TGI (MALME-3M melanoma) of 67 µM. For the same molecule, the TGI (MDA-MB-231 breast) was 59.3 µM, the TGI (MDA-MB-435) was over 100 µM and the TGI (MDA-N) was over 100 µM. For the same molecule, the TGI (MOLT-4 leukemia) was 30.5 µM, the TGI (NCI-H226 lung) was 70.2 µM and the TGI (NCI-H23 lung) was 60.5 µM. It also gave a TGI (NCI-H460 lung) of 41.1 µM, a TGI (NCI-H522 lung) of 53.4 µM and a TGI (NCI/ADR-RES ovarian) of 73.3 µM. For the same molecule, the TGI (OVCAR-3 ovarian) was 75.4 µM, the TGI (OVCAR-4 ovarian) was 60.3 µM and the TGI (OVCAR-5 ovarian) was over 100 µM. It also gave a TGI (OVCAR-8 ovarian) of 36.5 µM, a TGI (PC-3 prostate) of 37.1 µM and a TGI (RPMI-8226 leukemia) of 43.5 µM. The TGI (RXF 393 renal) was 30.2 µM, the TGI (SF-268 CNS) was 60.9 µM and the TGI (SF-295 CNS) was 51.5 µM. The TGI (SK-MEL-2 melanoma) was over 100 µM, the TGI (SK-MEL-28 melanoma) was over 100 µM and the TGI (SK-MEL-5 melanoma) was 32.7 µM. It also gave a TGI (SK-OV-3 ovarian) of 56.7 µM, a TGI (SN12C renal) of over 100 µM and a TGI (SNB-19 CNS) of 44.5 µM. For the same molecule, the TGI (SNB-75 CNS) was 38.4 µM, the TGI (SW-620 colon) was over 100 µM and the TGI (T-47D breast) was 33.9 µM. The TGI (TK-10 renal) was 56.3 µM, the TGI (U251 CNS) was 31 µM and the TGI (UACC-257 melanoma) was over 100 µM. For the same molecule, the TGI (UACC-62 melanoma) was 84.7 µM and the TGI (UO-31 renal) was 42.7 µM.
